Laboratory results reported in patent US8263754B2, “Amphiphiles for protein solubilization and stabilization” (Wisconsin Alumni Research Foundation, priority 2008, dated 2012).

Test: Critical micelle concentration (CMC) by dye solubilization (Orange OT or DPH)
Assay type: physicochemical
Conditions: determined by DPH (diphenylhexatriene) or Orange OT
Description: Aqueous solubilization of Orange OT was used to determine critical micelle concentrations (CMC). […] Facile self-association of these amphiphiles under these conditions may be hindered by the hydrophilicity and/or steric bulk of the triglucoside and dimaltoside headgroups.
The Critical Micelle Concentrations (CMCs) of compounds of the invention can be determined by standard techniques known to those of skill in the art. For example, CMCs of the carbohydrate-based amphiphiles described herein can be determined by monitoring uptake of a dye (e.g., Orange OT or 1,6-diphenylhexatriene) with increasing detergent concentration, monitored by UV-visible or fluorescence spectroscopy.

SMILES | CMC | CMC (%)
CCCCCCCCC(=O)NC(CO[C@@H]1O[C@H](CO)[C@@H](O)[C@H](O)[C@H]1O)CO[C@@H]1O[C@H](CO)[C@@H](O)[C@H](O)[C@H]1O [C8-MPA2] | 77 mM | 4.3%
CCCC[C@]1(CC(=O)NC(CO[C@H]2OC(CO)[C@H](O)C(O)[C@H]2O)CO[C@H]2OC(CO)[C@H](O)C(O)[C@H]2O)C2C[C@@H]3C[C@H](C2)C[C@@H]1C3 (stereo partly shown) [TPA 45] | 6.4 mM | 0.41%
O=C(CC1(C2CCCCC2)CCCCCC1)NC(CO[C@@H]1O[C@H](CO)[C@@H](O)[C@H](O)[C@H]1O)CO[C@@H]1O[C@H](CO)[C@@H](O)[C@H](O)[C@H]1O [TPA 53] | 13.8 mM | 0.88%
CC(C)(C)CC(C)(C)c1ccc(OCC(=O)NC(COC2OC(CO)C(O)C(O)C2O)COC2OC(CO)C(O)C(O)C2O)cc1 (stereo not shown) [CGT2] | 2.6 mM | 0.17%
O=C(NCCOC1OC(CO)C(OC2OC(CO)C(O)C(O)C2O)C(O)C1O)C(c1ccccc1)c1ccccc1 (stereo not shown) [DPA 68] | 85.3 mM | 4.95%
CCCCCCCCCCC(=O)NC(CO[C@@H]1O[C@H](CO)[C@@H](O)[C@H](O)[C@H]1O)CO[C@@H]1O[C@H](CO)[C@@H](O)[C@H](O)[C@H]1O [C10-MPA 2] | 8.1 mM | 0.47%
O=C(NCCO[C@H]1OC(CO)[C@H](O)C(O)[C@H]1O)C12CC3CC(CC(C3)C1)C2 (stereo partly shown) [TPA 41] | 180 mM | 6.9%
O=C(NCCO[C@@H]1O[C@H](CO)[C@@H](O[C@H]2O[C@H](CO)[C@@H](O)[C@H](O)[C@H]2O)[C@H](O)[C@H]1O)C(C1CCCCC1)C1CCCCC1 [DPA 69] | 13.9 mM | 0.82%
CCCCC(CCCC)(CC(=O)NC(COC1OC(CO)C(O)C(O)C1O)COC1OC(CO)C(O)C(O)C1O)c1ccc(-c2ccccc2)cc1 (stereo not shown) [TPA 34] | 0.14 mM | 0.01%
CCCC[C@]1(CC(=O)NCCO[C@H]2OC(CO)[C@H](O[C@@H]3OC(CO)[C@H](O)C(O)[C@H]3O)C(O)[C@H]2O)C2C[C@@H]3C[C@H](C2)C[C@@H]1C3 (stereo partly shown) [TPA 46] | 2.6 mM | 0.16%
CCCCC(CCCC)(CC(=O)NC(COC1OC(CO)C(O)C(O)C1O)COC1OC(CO)C(O)C(O)C1O)c1ccc(C)cc1 (stereo not shown) [TPA 31] | 2.4 mM | 0.16%
CCCCC(CCCC)(CC(=O)NC(CO[C@@H]1O[C@H](CO)[C@@H](O)[C@H](O)[C@H]1O)CO[C@@H]1O[C@H](CO)[C@@H](O)[C@H](O)[C@H]1O)c1ccc(C(C)C)cc1 [TPA 32] | 1.3 mM | 0.091%
O=C(CC1(C2CCCCC2)CCCCCCC1)NC(CO[C@@H]1O[C@H](CO)[C@@H](O)[C@H](O)[C@H]1O)CO[C@@H]1O[C@H](CO)[C@@H](O)[C@H](O)[C@H]1O [TPA 54] | 4.5 mM | 0.29%
CCCCC(CCCC)(CC(=O)NC(CO[C@@H]1O[C@H](CO)[C@@H](O)[C@H](O)[C@H]1O)CO[C@@H]1O[C@H](CO)[C@@H](O)[C@H](O)[C@H]1O)c1ccc(I)cc1 [TPA 28] | 0.89 mM | 0.07%
CCCCC(CCCC)(CC(=O)NC(CO[C@@H]1O[C@H](CO)[C@@H](O)[C@H](O)[C@H]1O)CO[C@@H]1O[C@H](CO)[C@@H](O)[C@H](O)[C@H]1O)c1ccc(C(C)(C)C)cc1 [TPA 33] | 0.42 mM | 0.03%
CCCCCC[C@]1(CC(=O)NC(CO[C@H]2OC(CO)[C@H](O)C(O)[C@H]2O)CO[C@H]2OC(CO)[C@H](O)C(O)[C@H]2O)C2C[C@@H]3C[C@H](C2)C[C@@H]1C3 (stereo partly shown) [TPA 52] | 1.1 mM | 0.075%
CCCCCCCCCCCCCCC(=O)NC(CO[C@@H]1O[C@H](CO)[C@@H](O)[C@H](O)[C@H]1O)CO[C@@H]1O[C@H](CO)[C@@H](O)[C@H](O)[C@H]1O [C14-MPA2] | 0.17 mM | 0.011%
CC(C)(C)CC(C)(C)c1ccc(OCC(=O)NCCC[N+](C)(C)[O-])cc1 [Triton-N-oxide] | 1.1 mM | 0.04%
CC(CC(=O)NC(CO[C@@H]1O[C@H](CO)[C@@H](O)[C@H](O)[C@H]1O)CO[C@@H]1O[C@H](CO)[C@@H](O)[C@H](O)[C@H]1O)(C1CCCCC1)C1CCCCC1 [TPA 47] | 4.7 mM | 0.3%
CC12CC3CC(C)(C1)CC(CC(=O)NCCO[C@H]1OC(CO)[C@H](O[C@@H]4OC(CO)[C@H](O)C(O)[C@H]4O)C(O)[C@H]1O)(C3)C2 (stereo partly shown) [TPA 44] | 19.1 mM | 1.1%
CCCCCC(CCCCC)(CC(=O)NC(CO[C@@H]1O[C@H](CO)[C@@H](O)[C@H](O)[C@H]1O)CO[C@@H]1O[C@H](CO)[C@@H](O)[C@H](O)[C@H]1O)c1ccccc1 [TPA 35] | 1.2 mM | 0.083%
O=C(CC1(C2CCCCC2)CCCCC1)NC(CO[C@@H]1O[C@H](CO)[C@@H](O)[C@H](O)[C@H]1O)CO[C@@H]1O[C@H](CO)[C@@H](O)[C@H](O)[C@H]1O [TPA 50] | 19.2 mM | 1.19%
CCCCC(CCCC)(CC(=O)NC(COC1OC(CO)C(O)C(O)C1O)COC1OC(CO)C(O)C(O)C1O)C1CCCC1 (stereo not shown) [TPA 57] | 2.25 mM | 0.15%
CCCCCCC(CCCCCC)(CC(=O)NC(CO[C@@H]1O[C@H](CO)[C@@H](O)[C@H](O)[C@H]1O)CO[C@@H]1O[C@H](CO)[C@@H](O)[C@H](O)[C@H]1O)c1ccccc1 [TPA 36] | 0.56 mM | 0.04%
CCCCCC(CC(=O)NC(CO[C@@H]1O[C@H](CO)[C@@H](O)[C@H](O)[C@H]1O)CO[C@@H]1O[C@H](CO)[C@@H](O)[C@H](O)[C@H]1O)(C1CCCCC1)C1CCCCC1 [TPA 73] | 0.21 mM | 0.014%
CCCCC(CC(=O)NC(CO[C@@H]1O[C@H](CO)[C@@H](O)[C@H](O)[C@H]1O)CO[C@@H]1O[C@H](CO)[C@@H](O)[C@H](O)[C@H]1O)(C1CCCCC1)C1CCCCC1 [TPA 49] | 0.64 mM | 0.04%

More lines, now with the values ahead:

CMC | CMC (%) | SMILES
1.9 mM | 0.19% | CCCCC(CCCC)(CC(=O)NC(CO[C@@H]1O[C@H](CO)[C@@H](O[C@H]2O[C@H](CO)[C@@H](O)[C@H](O)[C@H]2O)[C@H](O)[C@H]1O)CO[C@@H]1O[C@H](CO)[C@@H](O[C@H]2O[C@H](CO)[C@@H](O)[C@H](O)[C@H]2O)[C@H](O)[C@H]1O)C1CCCCC1 [TPA24]
3.3 mM | 0.34% | CCCCC(CCCC)(CC(=O)NC(CO[C@@H]1O[C@H](CO)[C@@H](O[C@H]2O[C@H](CO)[C@@H](O)[C@H](O)[C@H]2O)[C@H](O)[C@H]1O)CO[C@@H]1O[C@H](CO)[C@@H](O[C@H]2O[C@H](CO)[C@@H](O)[C@H](O)[C@H]2O)[C@H](O)[C@H]1O)c1ccc(C(C)(C)C)cc1 [TPA16]
1.4 mM | 0.13% | CCCCCCC(CCCCCC)(CC(=O)NC(CO[C@@H]1O[C@H](CO)[C@@H](O)[C@H](O)[C@H]1O)(CO[C@@H]1O[C@H](CO)[C@@H](O)[C@H](O)[C@H]1O)CO[C@@H]1O[C@H](CO)[C@@H](O)[C@H](O)[C@H]1O)c1ccccc1 [TPA17]
3.4 mM | 0.31% | CCCCC(CCCC)(CC(=O)NC(CO[C@@H]1O[C@H](CO)[C@@H](O)[C@H](O)[C@H]1O)(CO[C@@H]1O[C@H](CO)[C@@H](O)[C@H](O)[C@H]1O)CO[C@@H]1O[C@H](CO)[C@@H](O)[C@H](O)[C@H]1O)c1ccc(C(C)(C)C)cc1 [TPA14]
3.7 mM | 0.32% | CCCCC(CCCC)(CC(=O)NC(CO[C@@H]1O[C@H](CO)[C@@H](O)[C@H](O)[C@H]1O)(CO[C@@H]1O[C@H](CO)[C@@H](O)[C@H](O)[C@H]1O)CO[C@@H]1O[C@H](CO)[C@@H](O)[C@H](O)[C@H]1O)C1CCCCC1 [TPA22]
4.1 mM | 0.26% | CCCCC(CCCC)(CC(=O)NC(CO[C@@H]1O[C@H](CO)[C@@H](O)[C@H](O)[C@H]1O)CO[C@@H]1O[C@H](CO)[C@@H](O)[C@H](O)[C@H]1O)CC(C)C [TPA25]
0.3 mM | 0.03% | CCCCCCC(CCCCCC)(CC(=O)NC(CO[C@@H]1O[C@H](CO)[C@@H](O[C@H]2O[C@H](CO)[C@@H](O)[C@H](O)[C@H]2O)[C@H](O)[C@H]1O)CO[C@@H]1O[C@H](CO)[C@@H](O[C@H]2O[C@H](CO)[C@@H](O)[C@H](O)[C@H]2O)[C@H](O)[C@H]1O)c1ccccc1 [TPA18]
3.7 mM | 0.34% | CCCCC(CCCC)(CC(=O)NC(CO[C@@H]1O[C@H](CO)[C@@H](O)[C@H](O)[C@H]1O)(CO[C@@H]1O[C@H](CO)[C@@H](O)[C@H](O)[C@H]1O)CO[C@@H]1O[C@H](CO)[C@@H](O)[C@H](O)[C@H]1O)c1ccc(-c2ccccc2)cc1 [TPA13]
1.7 mM | 0.18% | CCCCC(CCCC)(CC(=O)NC(COC1OC(CO)C(OC2OC(CO)C(O)C(O)C2O)C(O)C1O)COC1OC(CO)C(OC2OC(CO)C(O)C(O)C2O)C(O)C1O)c1ccc(-c2ccccc2)cc1 (stereo not shown) [TPA15]
